Values of other authors in patent US9398745B2, “Organic composition for protection of crops against black frost and the method for its application” (priority 2014, dated 2016).

Tested on: animals
Conditions: tests performed on animals

CC(O)CO (stereo not shown) [1,2 propanediol]
toxicity: low toxicity
